One assay has as its target T1, Ac-VQIINK-NH2 (Homo sapiens, UniProt P10636).
T1 construct: made in house; host or cells: chemical peptide synthesis
The assay is described as follows: Inhibition of VQIINK aggregation with peptide inhibitors (ThT). Format: biochemical. As for the experimental part: The following describes the experimental method used to evaluate the IC50 of aggregation of VQIINK (SEQ ID NO:220) inhibition by the peptide inhibitors described above. The peptide sequence comprising Ac-VQIINK-NH2 (C-terminal amidated (SEQ ID NO: 220)) is prepared using the peptide synthetic method described above. The Ac-VQIINK-NH2 (SEQ ID NO: 220) is stored at 10 mM in 100% DMSO at −80° C., and an aliquot volume sufficient for a single aggregation assay plate is removed. The stock aggregation buffer (5×) is prepared with the following: 250 mM NaPhosphate (pH 8.0), 125 mM KCl, and 500 micromolar ThioflavinT (ThT). The aggregation assay is conducted with shaking, at room temperature, on a plate reader model FLX-800 by BioTek. Water for primary Ac-VQIINK-NH2 (SEQ ID NO: 220) dissolution is cooled to 4 degrees Celsius (7.245 milliliters). Buffer is added from the 5×stock (40 microliters, final volume in assay plate is 130 microliters, final buffer concentrations 50 millimolar NaPO4 (pH 8.0); 25 milllimolar KCl; and 100 micromolar ThioflavinT). The assay plate is cooled to 4 degrees Celsius. The Ac-VQIINK-NH2 (105 microliters (SEQ ID NO: 220)) is added to the chilled water (final volume of 7.350 milliliters), this is added into a pooled reservoir, and using a 96-channel robotic pipettor, 70 microliters diluted Ac-VQIINK-NH2 (SEQ ID NO: 220) is added to the assay plate to achieve a final concentration of 50 micromolar in a 200 microliter final assay volume (per well). Data is acquired using Magellan software. The calculation of IC50 is done by an automatic algorithm developed using the R statistical programing language. Briefly, the algorithm uses data exported in excel format from the plate reader to average the cumulative ThT fluorescence for each inhibitor concentration in the 6-point dose response. The IC50 is calculated as the midpoint of a sigmoid curve fitted to the correlation of normalized ThT fluorescence and inhibitor concentration.

The target in a further assay is T2, Tau40P301L protein (Homo sapiens, UniProt P10636, P618L).
T2 construct: His; made in house; host or cells: E. coli BL21
T2 sequence (P10636 1-441 isoform P10636-8 P301L): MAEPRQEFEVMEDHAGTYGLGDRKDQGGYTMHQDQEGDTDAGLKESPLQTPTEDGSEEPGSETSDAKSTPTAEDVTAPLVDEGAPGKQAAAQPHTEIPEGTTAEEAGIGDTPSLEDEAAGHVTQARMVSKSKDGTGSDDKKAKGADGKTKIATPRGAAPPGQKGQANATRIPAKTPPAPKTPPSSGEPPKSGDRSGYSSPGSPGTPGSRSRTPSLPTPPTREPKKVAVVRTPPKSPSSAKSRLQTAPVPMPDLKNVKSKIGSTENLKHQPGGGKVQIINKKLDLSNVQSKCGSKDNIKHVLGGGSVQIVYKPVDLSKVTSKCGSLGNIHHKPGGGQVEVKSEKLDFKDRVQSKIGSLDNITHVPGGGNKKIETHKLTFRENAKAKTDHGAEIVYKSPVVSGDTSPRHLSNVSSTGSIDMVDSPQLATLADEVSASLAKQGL
The assay is described as follows: biochemical. The conditions noted are these: IC50 (μM), Tau40 assay. As for the experimental part: The following describes the experimental method used to evaluate the IC50 of Tau amyloid inhibition by the peptide inhibitors described above. The physical setup of inhibitor peptides in these dose responses is done automatically with an 8-span head on a BioMek3000 liquid handler into Costar optically 96-well clear bottom black plates. Inhibitor peptides are kept frozen at −80° C. in 100% dimethylsulfoxide (DMSO) solution at a concentration of 20 mM and thawed immediately before the assay. The Biomek makes two serial dilutions of a single inhibitor for a duplicate 6-point dose response curve. This is followed by addition a 5×reaction buffer. The final reaction buffer concentration in the assay is 50 mM MES, pH 6.8, 125 mM NaCl, 10 μM Heparin, 50 μM ThT. The Tau substrate is added by a 96-head Multimek liquid handler making a 4:10 dilution of Tau40P301L protein to which DTT is added directly before setting up the assay. The P301 L mutant of tau is associated with features of human tauopathies (Comb et al., supra; Lewis et al., Nature Genetics 25: 402-405 (2000)). The final concentrations of Tau40P301L and DTT in the assay is 2.5 μM and 5 mM, respectively. Amyloid formation is measured by monitoring Thioflavin T (ThT) fluorescence every 10 minutes with excitation and emission wavelengths of 440 and 485 nm using fluorescence plate readers. The assay plates are kept in the plate reader during the whole duration of the assay, and incubated at 37° C. with continuous shaking for 24 hours. Plate reader models Genios and Spectrafluor Plus produced by Tecan are used and data is acquired using Magellan software. The calculation of IC50 is done by an automatic algorithm developed using the R statistical programing language. Briefly, the algorithm uses data exported in excel format from the plate reader to average the cumulative ThT fluorescence for each inhibitor concentration in the 6-point dose response. The IC50 is calculated as the midpoint of a sigmoid curve fitted to the correlation of normalized ThT fluorescence and inhibitor concentration.

For another assay, the target named is His-Tau40P301L Tau (UniProt P10636-8 1-441). The assay is described as follows: cell-based or functional assay.
Sequence of His-Tau40P301L Tau (P10636 other isoform, or with tags, fused parts or gaps limits assumed): as the sequence (P10636 1-441 isoform P10636-8 P301L) above
Assay [1] has as its target TauRD (P301S)-Nluc and TauRD (P301S)-Cluc split luciferase compliment pair (human, UniProt P10636-8 244-372; P10636-8 244-372). The assay is described as follows: cell-based or functional assay.

Ends that are not written are not given here. Peptide text beside a SMILES is read from it. TAMRA = tetramethyl rhodamine dye

Sequence of TauRD (P301S)-Nluc and TauRD (P301S)-Cluc split luciferase compliment pair (P10636 561-689 P618S, chain 1 of 2): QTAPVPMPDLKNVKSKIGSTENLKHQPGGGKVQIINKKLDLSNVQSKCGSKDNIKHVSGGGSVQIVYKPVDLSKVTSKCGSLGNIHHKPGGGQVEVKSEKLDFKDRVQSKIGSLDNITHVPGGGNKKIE
Sequence of TauRD (P301S)-Nluc and TauRD (P301S)-Cluc split luciferase compliment pair (P10636 561-689 P618S, chain 2 of 2): as the sequence (P10636 561-689 P618S, chain 1 of 2) above

Consider `CC[C@H](C)[C@H](NC(=O)[C@H](CCCNC(=N)N)NC(=O)[C@@H](N)Cc1c[nH]c2ccccc12)C(=O)N[C@@H](Cc1c[nH]c2ccccc12)C(=O)N[C@@H](CC(C)C)C(=O)N[C@@H](CCCNC(=N)N)C(=O)N[C@@H](Cc1ccc(O)cc1)C(=O)N[C@@H](Cc1c[nH]c2ccccc12)C(=O)O` [compound 17] (H-WRIWLRYW-OH), for which 2.32 µM corresponded to half-maximal inhibition at Ac-VQIINK-NH2 (IC50).

As to `CC[C@H](C)[C@H](NC(=O)[C@H](CCCNC(=N)N)NC(=O)[C@@H](NC(=O)[C@@H](N)CCCNC(=N)N)[C@@H](C)CC)C(=O)N[C@@H](Cc1c[nH]c2ccccc12)C(=O)N[C@@H](CC(C)C)C(=O)N[C@@H](Cc1c[nH]c2ccccc12)C(=O)O` [compound 26] (H-RIRIWLW-OH), on Ac-VQIINK-NH2, the IC50 was 1.93 µM. This IC50 and that of the molecule before are within 1.5-fold of each other. Still for that read-out and setting: the result for `CC[C@H](C)[C@H](N)C(=O)N[C@@H](Cc1c[nH]c2ccccc12)C(=O)N[C@H](C(=O)N[C@@H](CCCNC(=N)N)C(=O)N[C@@H](CC(C)C)C(=O)N[C@@H](Cc1c[nH]c2ccccc12)C(=O)O)[C@@H](C)CC` [compound 50] (H-IWIRLW-OH) reads 2.12 µM. As to `CC[C@H](C)[C@H](NC(=O)[C@@H](N)CCCNC(=N)N)C(=O)N[C@@H](CCCNC(=N)N)C(=O)N[C@@H](CC(C)C)C(=O)N[C@@H](Cc1c[nH]c2ccccc12)C(=O)N[C@@H](Cc1ccc(O)cc1)C(=O)N[C@@H](Cc1c[nH]c2ccccc12)C(=O)O` [compound 60] (H-RIRLWYW-OH), the IC50 at Tau40P301L protein amounted to 8.01 µM. With `CC[C@H](C)[C@H](NC(=O)[C@H](CCCNC(=N)N)NC(=O)[C@@H](NC(=O)[C@H](Cc1c[nH]c2ccccc12)NC(=O)[C@@H](N)Cc1c[nH]c2ccccc12)[C@@H](C)CC)C(=O)N[C@@H](CCCNC(=N)N)C(=O)N[C@@H](Cc1ccc(O)cc1)C(=O)N[C@@H](Cc1c[nH]c2ccccc12)C(=O)N[C@@H](CC(C)C)C(=O)O` [compound 65] (H-WWIRIRYWL-OH), the IC50 against Tau40P301L protein was 1.31 µM; against Ac-VQIINK-NH2 it was 4.88 µM. For `CC[C@H](C)[C@H](NC(=O)[C@H](CCC(N)=O)NC(=O)[C@@H](NC(=O)[C@H](CCCNC(=N)N)NC(=O)[C@@H](N)Cc1c[nH]c2ccccc12)[C@@H](C)CC)C(=O)N[C@@H](CCCNC(=N)N)C(=O)N[C@@H](Cc1c[nH]c2ccccc12)C(=O)O` [compound 69] (H-WRIQIRW-OH), the IC50 at Ac-VQIINK-NH2 amounted to 2.17 µM.

Molecule `CC[C@H](C)[C@H](NC(=O)[C@H](C)NC(=O)[C@@H](N)Cc1c[nH]c2ccccc12)C(=O)N[C@@H](CCCNC(=N)N)C(=O)N[C@H](C(=O)N[C@@H](CCCNC(=N)N)C(=O)N[C@@H](Cc1c[nH]c2ccccc12)C(=O)O)[C@@H](C)CC` [compound 124] (H-WAIRIRW-OH) returned an IC50 against Ac-VQIINK-NH2 of 1.94 µM. On the same count and under the same terms, the result for `CC[C@H](C)[C@H](NC(=O)[C@H](Cc1ccccc1)NC(=O)[C@@H](NC(=O)[C@H](CCCNC(=N)N)NC(=O)[C@@H](N)Cc1c[nH]c2ccccc12)[C@@H](C)CC)C(=O)N[C@@H](CCCNC(=N)N)C(=O)N[C@@H](Cc1c[nH]c2ccccc12)C(=O)O` [compound 136] (H-WRIFIRW-OH) reads 9.13 µM.

For the molecule `CC[C@H](C)[C@H](NC(=O)[C@H](CCCNC(=N)N)NC(=O)[C@@H](NC(=O)[C@H](CCCNC(=N)N)NC(=O)[C@@H](N)CC(C)C)[C@@H](C)CC)C(=O)N[C@@H](CCCNC(=N)N)C(=O)N[C@@H](Cc1c[nH]c2ccccc12)C(=O)O` [compound 139] (H-LRIRIRW-OH), on Ac-VQIINK-NH2, the midpoint of inhibition, the IC50, lay at 4.31 µM.

As to `CC[C@H](C)[C@H](NC(=O)[C@H](CCCNC(=N)N)NC(=O)[C@@H](NC(=O)[C@@H](N)Cc1c[nH]c2ccccc12)[C@@H](C)CC)C(=O)N[C@@H](CCCNC(=N)N)C(=O)N[C@@H](Cc1ccc(O)cc1)C(=O)N[C@@H](Cc1c[nH]c2ccccc12)C(=O)O` [compound 152] (H-WIRIRYW-OH), the IC50 at Tau40P301L protein worked out at 2.6 µM; against Ac-VQIINK-NH2, 6.02 µM. `CC[C@H](C)[C@H](NC(=O)[C@H](Cc1c[nH]c2ccccc12)NC(=O)[C@@H](NC(=O)[C@H](CCCNC(=N)N)NC(=O)[C@@H](N)CC(C)C)[C@@H](C)CC)C(=O)N[C@@H](CCCNC(=N)N)C(=O)N[C@@H](Cc1ccc(O)cc1)C(=O)N[C@@H](CC(C)C)C(=O)O` [compound 155] (H-LRIWIRYL-OH) registered a half-maximal inhibitory concentration (IC50) against Ac-VQIINK-NH2 of 1.74 µM. This lies in the single-digit micromolar range.

The molecule `CC[C@H](C)[C@H](NC(=O)[C@H](CCCNC(=N)N)NC(=O)[C@@H](N)Cc1c[nH]c2ccccc12)C(=O)N[C@@H](Cc1c[nH]c2ccccc12)C(=O)N[C@@H](C)C(=O)N[C@@H](CCCNC(=N)N)C(=O)N[C@@H](Cc1ccc(O)cc1)C(=O)N[C@@H](Cc1c[nH]c2ccccc12)C(=O)O` [compound 163] (H-WRIWARYW-OH) returned an IC50 at Tau40P301L protein of 2.95 µM. For `CC[C@H](C)[C@H](N)C(=O)N[C@@H](Cc1c[nH]c2ccccc12)C(=O)N[C@H](C(=O)N[C@@H](CCCNC(=N)N)C(=O)N[C@@H](Cc1ccc(O)cc1)C(=O)N[C@@H](Cc1c[nH]c2ccccc12)C(=O)O)[C@@H](C)CC` [compound 180] (H-IWIRYW-OH), 5.43 µM corresponded to half-maximal inhibition on Ac-VQIINK-NH2 (IC50). On the same count and under the same terms, the result for `CC[C@H](C)[C@H](NC(=O)[C@@H](N)CCCCN)C(=O)N[C@@H](CCCNC(=N)N)C(=O)N[C@@H](CC(C)C)C(=O)N[C@@H](Cc1ccc(O)cc1)C(=O)N[C@@H](Cc1c[nH]c2ccccc12)C(=O)N[C@@H](Cc1c[nH]c2ccccc12)C(=O)O` [compound 194] (H-KIRLYWW-OH) reads 2.86 µM. Same read-out and setting: as for `CC[C@H](C)[C@H](NC(=O)[C@H](Cc1c[nH]c2ccccc12)NC(=O)[C@@H](NC(=O)[C@H](CCCNC(=N)N)NC(=O)[C@@H](N)Cc1c[nH]c2ccccc12)[C@@H](C)CC)C(=O)N[C@@H](CCCNC(=N)N)C(=O)N[C@@H](CC(C)C)C(=O)N[C@@H](Cc1c[nH]c2ccccc12)C(=O)O` [compound 202] (H-WRIWIRLW-OH), the figure is 3.97 µM.

With {TAMRA}-RRRRRRRRRRGGSGGWRIWIRYW [[TAMRA]-RRRRRRRRRR-GGSGG-WRIWIRYW], in the assay with His-Tau40P301L Tau, the “IC50 (µM), Tau40 assay-Modified peptides (ThT)” value was 12.6 µM. In addition, the “EC50 (µM), HEK cell assay, split luciferase complementation” value (from here on “EC50 (µM), HEK cell assay”) in assay [1] turned out to be 4.1 µM. Turning to {TAMRA}-RRRRRRRRRGGSGGWRLKVRWW [[TAMRA]-RRRRRRRRR-GGSGG-WRLKVRWW], the “IC50 (µM), Tau40 assay-Modified peptides (ThT)” value with His-Tau40P301L Tau is 7.3 µM. For the same molecule, the “EC50 (µM), HEK cell assay” value in assay [1] amounted to 8.2 µM.

Regarding RRRRRRRRRGGSGGLFYLRLT [RRRRRRRRR-GGSGG-LFYLRLT], the “EC50 (µM), HEK cell assay” value in assay [1] amounted to 9.6 µM.

Broadly, the IC50 is the concentration at which inhibition is half-maximal. A low value points to higher potency.

Source of the values: patent US20230137562A1, “TAU AGGREGATION INHIBITORS” (priority 2017, published 2023).
